{
  "source": "paper PMC13439108",
  "about": "“An antibody–drug conjugate active against antibiotic-resistant Neisseria gonorrhoeae” (Proceedings of the National Academy of Sciences of the …, 2026)",
  "key": {"HK-2 cells": {"system": "HK-2 cells", "assay": "MTT cell viability", "format": "cell-based, human", "conditions": "n = 3", "protocol": "HK-2 cells (CRL-2190™, Americab Type Culutre Collection (ATCC)), a proximal renal tubule cell(7), and End1/E6E7 (CRL-2615™, ATCC) upper cervical epithelial cells(8) were cultured in Keratinocyte Serum Free Medium (Invitrogen, Life Technologies Ltd.) with human recombinant EGF (5 ng ml-1) and bovine pituitary extract (0.05 mg ml−1) at 37°C in 5% CO2. […]\nCell viability was assessed by 3-(4,5-dimethylthiazol-2-yl)-2,5-diphenyl-2H-tetrazolium bromide (MTT) assay(9); 200 µl fresh cell media and 250 µg of MTT was added to cells. Plates were Incubated at 37 °C, 5% CO2 for 3 hr then 200 µl of DMSO was added to wells with 25 µl glycine buffer (0.1 M glycine, 0.1 M NaCl pH 10.5) and shaken at 1000 r.p.m. for 10 min. Absorbance was read at OD570 nm. Cell viability was calculated as (sample absorbance – cell free blank/media control absorbance) x100."}, "N. gonorrhoeae FA1090": {"system": "N. gonorrhoeae FA1090", "assay": "Time-to-kill assay", "format": "cell-based, Neisseria gonorrhoeae", "conditions": "FA1090, 50 μg mL^−1 of the AMP, GW medium; n = 3", "protocol": "(§1) Fig. 4. […] (C) Time-to-kill curve analysis with ADCs protocol. N. gonorrhoeae were grown for 24 h prior to harvesting supernatant with or without IgAP, wild-type, and ΔigAP, respectively. Supernatant was dialyzed into fresh media prior to inoculating with respective N. gonorrhoeae strains. After 3 h growth, ADCs or peptides were added, and CFU/mL was calculated every 30 min for 4 h. […] All data shown are the mean ± SD of CFU/ml (n = 3).\n(§2) 37°C, in 5% CO2 then 10 μl aliquots plated onto GCB agar. The MIC was defined as the lowest concentration of an antimicrobial that prevented bacterial growth.\n(§3) Determination of N. gonorrhoeae resistance to Oct-TriA1\n(§4) Single colonies of N. gonorrhoeae FA1090 were inoculated into 2 mL of FB media supplemented with 1% Vitox (Oxoid) and grown overnight. After 24 hours, 240 µl of a 1/ 5,000 dilution of FA1090 in 2x FB was added to a 48-well plate containing 2-fold dilutions of either Oct-TriA1-c (final concentration, 12.5 µg/ml to 0.2 µg/ml) or ciprofloxacin (final concentration, 16.4 to 0.001 µg/ml) in a total volume of 480\n(§5) µl. Plates were incubated at 37 °C, 5% CO2 with shaking (180 rpm). After 24 hours, ODA600 of each well […]\n(§6) Peptide concentrations for ADCs were calculated from the antibody concentration, the drug-to-antibody ratio (DAR), and the peptide molecular weight using the following formula: […]"}, "[1]": {"system": "N. gonorrhoeae G97687 (MDR strain)", "assay": "Time-to-kill assay", "format": "cell-based, Neisseria gonorrhoeae", "conditions": "G97687, peptide 50 μg mL^−1, GW medium; n = 3", "protocol": "as §1, §2, §3, §4, §5, §6"}},
  "note": "Where a SMILES comes first, the peptide text is derived from it. [ ]: non-standard residue; d: D form. The star is where a group is joined. d(aIle) = CC[C@H](C)[C@@H](N)C(=O)O; dDab = NCC[C@@H](N)C(=O)O; Octanoyl = CCCCCCCC(=O)*; Dab = NCC[C@H](N)C(=O)O; AEEA = NCCOCCOCC(=O)O",
  "data": [
    {"smiles": "CCCCCCCC(=O)N[C@@H](C(=O)N[C@H](CCN)C(=O)NCC(=O)N[C@H](CO)C(=O)N[C@H](Cc1c[nH]c2ccccc12)C(=O)N[C@@H](CO)C(=O)N[C@@H](CCN)C(=O)N[C@H](CCN)C(=O)N[C@@H](Cc1ccccc1)C(=O)N[C@@H](CCC(=O)O)C(=O)N[C@H](C(=O)N[C@@H](C(=O)N[C@@H](C)C(=O)NCCOCCOCC(=O)N[C@@H](CC(C)C)C(=O)N1CCC[C@H]1C(=O)N[C@@H](CCCNC(=N)N)C(=O)N1CCC[C@H]1C(=O)N1CCC[C@H]1C(=O)O)[C@@H](C)CC)C(C)C)C(C)C", "note": "[Oct-TriA1-c] (Octanoyl-[dV][dDab]G[dS][dW]S[Dab][dDab]FEV[d(aIle)]A[AEEA]LPRPP-OH)", "values": [
      {"measurement": "MTT (EC50) 4 h", "setting": "HK-2 cells; MTT reduction OD570, 4 h", "result": 101.98, "unit": "µg/mL"},
      {"measurement": "MTT (EC50) 24 h", "setting": "HK-2 cells; MTT reduction OD570, 24 h", "result": 78.78, "unit": "µg/mL"},
      {"measurement": "MTT (EC50) 48 h", "setting": "HK-2 cells; MTT reduction OD570, 48 h", "result": 61.09, "unit": "µg/mL"},
      {"measurement": "time to undetectable survival", "setting": "N. gonorrhoeae FA1090", "result": 60, "unit": "min"},
      {"measurement": "time to no survival", "setting": "[1]", "result": 180, "unit": "min"}
    ]}
  ]
}
